Data set [1] relates to STAPH AUREUS 11127. Kind of data set: Tube Dilution Assay, STAPH AUREUS 11127. Format: cell-based. The settings on record: Staphylococcus aureus; read-out: Tube Dilution Assay, gram positive, STAPH AUREUS 11127.
For a further data set, the system named is STAPH AUREUS 3452. Description: Tube Dilution Assay, STAPH AUREUS 3452. Type of data set: cell-based. The following applies: Staphylococcus aureus; read-out: Tube Dilution Assay, gram positive, STAPH AUREUS 3452.
A further data set concerns PR. MIRABILIS 431. Kind of data set: Tube Dilution Assay, PR. MIRABILIS 431. Format: cell-based. The settings on record: Proteus mirabilis; read-out: Tube Dilution Assay, gram negative, PR. MIRABILIS 431.
The next data set has as its system E. COLI 573. Description: Tube Dilution Assay, E. COLI 573. Type of data set: cell-based. The following applies: Escherichia coli; read-out: Tube Dilution Assay, gram negative, E. COLI 573.
For data set [2], the system named is STAPH AUREUS 11127. Kind of data set: Mouse Protection, STAPH AUREUS 11127. The following applies: Staphylococcus aureus. Type of data set: in vivo.
A further data set has as its system STAPH AUREUS 604. Kind of data set: Tube Dilution Assay, STAPH AUREUS 604. Type of data set: cell-based. The settings on record: Staphylococcus aureus; read-out: Tube Dilution Assay, gram positive, STAPH AUREUS 604.
The next data set concerns S. TYPHIMURIUM 804. Description: Tube Dilution Assay, S. TYPHIMURIUM 804. Format: cell-based. The settings on record: Salmonella enterica, read-out: Tube Dilution Assay, gram negative, S. TYPHIMURIUM 804.
Another data set deals with STAPH AUREUS 663. Description: Tube Dilution Assay, STAPH AUREUS 663. Format: cell-based. The following applies: Staphylococcus aureus; read-out: Tube Dilution Assay, gram positive, STAPH AUREUS 663.
The nature of data set [3]: R.O.U.R.: recovery of the antibiotic from the urine of female rats following oral administration. Format: in vivo. The settings on record: rat. From the text:
*R.O.U.R. = % recovery of the antibiotic from the urine of female rats
following oral administration of the antibiotic.

Data set [4] in a line: absorption and blood levels by the oral route. Format: in vivo.
Data set [5] in a line: activity on oral administration. Type of data set: in vivo.
Data set [6] is described as follows: animal tests of degradation in vivo.
In data set [7] the test system is gram-positive and gram-negative organisms. Description: in vitro antibacterial tests. Type of data set: cell-based.

Molecules are shown by their SMILES. Converted amounts (≈) assume the structure as drawn.

One may read the ED50 as the dose that gives a 50% effect, or the effect in half of the subjects. A lower ED50 goes with greater potency. Take `CCC1=C(C(=O)O)N2C(=O)[C@@H](NC(=O)[C@H](N)c3ccccc3)[C@H]2SC1.O=C(O)C(F)(F)F` [1(d), 7β-(D-2-Amino-2-phenylacetamido)-3-ethylceph-3-em-4-carboxylic acid, Trifluoroacetic Acid Salt]: the MIC in the data set on STAPH AUREUS 11127 [1] worked out at 0.08 µg/mL; in the data set on STAPH AUREUS 3452, 1.6 µg/mL; with PR. MIRABILIS 431, 16 µg/mL; in the data set with E. COLI 573, 8 µg/mL; with STAPH AUREUS 604, 1.6 µg/mL; in the data set on S. TYPHIMURIUM 804, 16 µg/mL. The MIC in the data set with STAPH AUREUS 663 came out at 0.3 µg/mL. The ED50 in the data set with STAPH AUREUS 11127 [2] is below 6 mg/kg. This compound came in with a dose excreted in [3] of 45%.

With `N#CCCC1=C(C(=O)O)N2C(=O)[C@@H](NC(=O)Cc3cccs3)[C@H]2SC1` [2(c), 3-(2-Cyanoethyl)-7β-(2-thienylacetamido)ceph-3-em-4-carboxylic acid], the MIC in the data set on STAPH AUREUS 11127 [1] worked out at 1 µg/mL (≈ 2.65 µM); with STAPH AUREUS 3452 it was 4 µg/mL (≈ 10.6 µM); in the data set on PR. MIRABILIS 431 it was 31 µg/mL (≈ 82.1 µM); with E. COLI 573, 62 µg/mL (≈ 164 µM); in the data set with STAPH AUREUS 604, 1.25 µg/mL (≈ 3.31 µM); in the data set on S. TYPHIMURIUM 804, 16 µg/mL (≈ 42.4 µM). In addition, the MIC in the data set with STAPH AUREUS 663 amounted to 0.08 µg/mL (≈ 0.212 µM). This compound came in with a dose excreted in [3] of 2.1%.

As to `CCC1=C(C(=O)O)N2C(=O)[C@@H](NC(=O)[C@H](N)c3ccccc3)[C@H]2SC1` [Example 4(b), 7β-(D-2-Amino-2-phenylacetamido)-3-ethylceph-3-em-4-carboxylic acid], in data set [4], the “absorption by the oral route” value was “well absorbed” and the blood levels entry is “good blood levels”. For the same compound, the “activity on oral administration” value in data set [5] is “appreciable level of activity”. Moreover, the degradation in vivo result in data set [6] is listed as “substantially resistant to degradation in vivo”. The “activity against gram-positive and gram-negative organisms” value in data set [7] is “active against gram-positive and gram-negative organisms”.

For the origin of these results see patent US3974152A, “3-Ethyl- and 3-(2'cyanoethyl)-cephalosporins” (Glaxo Laboratories Limited, priority 1970, dated 1976).
